Results on one compound are retold here after PMC3790769, “Ansamitocin P3 Depolymerizes Microtubules and Induces Apoptosis by Binding to Tubulin at the Vinblastine Site” (PLoS ONE, 2013).

This test deals with T1, tubulin.
T1 construct: tubulin isolated from goat brain (alpha-beta dimer); with alpha-tubulin/beta-tubulin heterodimer
Briefly: intrinsic tryptophan fluorescence quenching of purified tubulin; supported by reduced DTNB cysteine modification. Format: binding, Capra hircus.

Consider `COc1cc2cc(c1Cl)N(C)C(=O)C[C@H](OC(=O)C(C)C)[C@]1(C)O[C@H]1[C@H](C)[C@@H]1C[C@@](O)(NC(=O)O1)[C@H](OC)/C=C/C=C(\C)C2` [Ansamitocin P3], for which the Kd was found to be 1300 ± 700 nM.
